Tests used:
[1] = system: cultured human keratinocytes; assay: [3H]-thymidine incorporation and DNA content in cultured human keratinocytes; type: cell-based; settings: 24 hours, FIG. 12
Protocol: To determine the ability of exogenous glucosylceramides (GlcCER) to stimulate epidermal proliferation, we applied various concentrations of GlcCER to cultural human keratinocytes (third passage). Keratinocytes were isolated from human neonatal foreskins by a modification of the method of Pittelkow, M. R. and Scott, R. E. ( (1986) Proc. Mayo Clin. 61:771-777) Cells were added to 100 mm plastic Petri dishes at a density of 1 to 2×10^4 cells/cm^2, and grown initially in 10mls of Keratinocyte Growth Medium (KGM) (Clonetics, San Diego, Calif.) with 0.07 mM calcium. The cultures were maintained at 35° C. under 5% CO2 in air, with medium changes performed three times weekly. After the cells reached 70%-80% confluence, they were switched to KGM medium containing 1.2 mM calcium, and harvested at one week post-confluence. GlcCER was added for the last 24 hours of culture and ^3H-thymidine (1 μCi/ml) was added one-to-three hours prior to harvesting of cells for measurement of DNA synthesis and DNA content. (Proksch, E., et al., J. Clin. Invest. 87:1668-1673 (1991).
Using the method described in Example 5, incorporation of [^3H]-thymidine and total DNA content were measured in cultured human keratinocytes (CHK) grown in serum-free keratinocyte growth medium (KGM) supplemented with 0.07 mM .calcium. Cultured cell were further supplemented as indicated, with ceramide (Cer; 5 or 10 μM), glucosylceramide (GlcCER; 1.25 or 2.5 μM), or a combination of ceramide and glucosylceramide (10 and 1.25 μM, respectively).
CHK cells were grown in serum-free KGM supplemented both with 0.07 mM calcium and 10 μM ceramide (CER). Increasing concentrations of glucosylceramide were added (2.5 to 10 μM), and both [^3H]-thymidine (1 μCi/ml) and [^14C]-leucine (1 μCi/ml) incorporation assays were performed.
CHK cells were grown (as in Example 6)in serum-free KGM (0.07 mM calcium) and supplemented with increasing concentrations of ceramide (CER) alone (dark bars), glucosylceramide (GlcCer) alone (back row), or the combination of ceramide (10 μM) with increasing glucosylceramide (front row). […] Glucosylceramide alone again stimulated thymidine incorporation (>20%) at low concentrations (1.25 and 2.5 μM).
CHK cells were grown (as in Example 6) in serum-free KGM ([…]) supplemented with glucosylceramide (GlcCER) alone, or in combination with the β-glucocerebrosidase-inhibitor, CBE (3 or 10 μM) (FIG. 12). Incorporation of [^3H]-thymidine was measured at 24 hours following supplementation, and values are reported as percent of unsupplemented controls (mean ±S.D.; n>6). […] A low CBE concentration (3 μM) was ineffective.

murine epidermis = assay: Total epidermal DNA content after topical CBE; type: in vivo, mouse
Protocol: In addition to measuring DNA synthesis by [^3H]-thymidine incorporation, total epidermal DNA content was determined after applications of CBE. 100 μl of epidermal homogenate was obtained from mice and stored at −70° C. Samples were diluted with Hoechst buffer (pH 7.4) in duplicate. Each sample was brought up to 1 ml with Hoechst buffer. 1 ml of bisbenzimadazole (diluted 1:1000 with dist H2O) was added and samples were vortexed. Standards were prepared using 134 μg/ml calf thymus DNA diluted 1:10 with Hoechst buffer. Final concentration of DNA ranged from 0.067 to 0.335 μg. All samples and standards were covered for 2 hours and absorbance at […] was determined (LaBarca, C. and Paigan (1980) Anal. Biochem. 102:344-352).

SMILES: O[C@H]1[C@H](O)[C@@H](O)[C@@H]2O[C@@H]2[C@@H]1O (racemic) [CBE, conduritol-B-epoxide]
- inhibition of thymidine incorporation caused by higher glucosylceramide concentrations ([1]; CBE 3 μM with GlcCER): ineffective
- inhibition of thymidine incorporation caused by higher glucosylceramide concentrations ([1]; CBE 10 μM with GlcCER): blocked the inhibition
- DNA concentration, higher than untreated samples (murine epidermis; 24 hours following CBE treatment, FIG. 20 & 21): 6-81%
- DNA concentration, higher than untreated samples (murine epidermis; 3 days of CBE-treatment, FIG. 19): 45-113%
- DNA concentration, higher than untreated skin samples (murine epidermis; 5 days of CBE-treatment, FIG. 18): 46-331%

— US6399580B1, “Methods and compositions for stimulating tissue growth and epithelial moisturization” (The Regents of the University of California, priority 1994, dated 2002)
